In patent US9346761B2, “Arginine methyltransferase inhibitors and uses thereof” (Epizyme, Inc., priority 2013, dated 2016):

Tests used:
Full-length human PRMT6 = target: T1, Full-length human PRMT6 (Homo sapiens, UniProt Q96LA8); assay: PRMT6 biochemical assay (3H-SAM Flashplate, peptide substrate)
T1 construct: Flag-PRMT6-His was eluted with 200 ug/ml FLAG peptide in the same buffer; made in house; host or cells: HEK 293F cells (BacMam virus, pFastBacMam)
Summary of the method: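 Read-out is 3H-methylated histone H4 (36-50) peptide bound to streptavidin Flashplates after a cold-SAM stop. Baculovirus-expressed Flag-PRMT6-His met compound for 30 min at room temperature before SAM and peptide; Bicine pH 7.6 buffer. IC50 fitted to % inhibition normalized to SAH (min) and DMSO (max).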

Full-length human PRMT8 = target: T2, Full-length human PRMT8 (Homo sapiens, UniProt Q9NR22); assay: PRMT8 biochemical assay (3H-SAM Flashplate, peptide substrate)
T2 construct: Full-length human PRMT8 (NM_019854.4) isoform 1 transcript clone; made in house
Summary of the method: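 Methylation of a biotinylated H4 (31-45) peptide by ³H-SAM was counted after streptavidin Flashplate capture. Purified recombinant PRMT8 and compound were preincubated 30 min at room temperature in Bicine buffer pH 7.6 with TCEP, BSG and Tween 20, and reactions were stopped with unlabeled SAM (final 400 μM). Inhibition versus DMSO and SAH controls was fit by 3- or 4-parameter curves.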

T1 sequence (Q96LA8 with tags, fused parts or gaps): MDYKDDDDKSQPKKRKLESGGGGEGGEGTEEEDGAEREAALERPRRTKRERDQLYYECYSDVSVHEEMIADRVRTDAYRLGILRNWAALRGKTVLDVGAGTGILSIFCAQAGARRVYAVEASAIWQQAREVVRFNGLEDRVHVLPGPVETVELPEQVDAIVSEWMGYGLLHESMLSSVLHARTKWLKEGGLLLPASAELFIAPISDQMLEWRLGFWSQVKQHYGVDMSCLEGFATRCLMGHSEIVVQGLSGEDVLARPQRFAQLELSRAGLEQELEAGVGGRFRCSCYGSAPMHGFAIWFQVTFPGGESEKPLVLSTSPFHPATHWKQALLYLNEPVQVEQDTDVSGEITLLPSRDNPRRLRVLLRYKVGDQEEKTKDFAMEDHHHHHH
T2 sequence (Q9NR22 whole entry, canonical isoform): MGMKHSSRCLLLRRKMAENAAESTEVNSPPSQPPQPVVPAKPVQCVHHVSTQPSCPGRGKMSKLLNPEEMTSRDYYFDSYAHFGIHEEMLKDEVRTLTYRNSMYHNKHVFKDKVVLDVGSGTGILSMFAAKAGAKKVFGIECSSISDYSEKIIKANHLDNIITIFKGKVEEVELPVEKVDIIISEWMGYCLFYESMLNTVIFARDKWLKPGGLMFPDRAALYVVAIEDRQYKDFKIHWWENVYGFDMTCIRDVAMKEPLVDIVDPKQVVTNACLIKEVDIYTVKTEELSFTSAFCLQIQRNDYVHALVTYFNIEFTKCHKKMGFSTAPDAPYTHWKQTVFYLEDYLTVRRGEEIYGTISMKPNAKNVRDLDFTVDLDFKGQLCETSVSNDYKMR

SMILES	IC50 (Full-length human PRMT6)	IC50 (Full-length human PRMT8)
CN(CCN)Cc1cn[nH]c1-c1ccc(F)cc1 [Compound 1]	< 100 nM	–
CNCCN(C)Cc1c[nH]nc1-c1ccc(F)cc1 [Compound 2, N^1-((3-(4-fluorophenyl)-1H-pyrazol-4-yl)methyl)-N^1,N^2-dimethylethane-1,2-diamine]	< 100 nM	101 to 1000 nM
CN(CCN)Cc1cn(C)nc1-c1ccc(F)cc1 [Compound 3]	< 100 nM	101 to 1000 nM
CN(CCN)Cc1cnn(C)c1-c1ccc(F)cc1 [Compound 4]	< 100 nM	1010 to 3000 nM
CCN(CCNC)Cc1c[nH]nc1-c1ccc(F)cc1 [Compound 9]	–	101 to 1000 nM
CNCCN(C)Cc1cnn(C)c1-c1ccc(F)cc1 [Compound 10]	–	101 to 1000 nM
CNCCN(C)Cc1cn(CC2CCOCC2)nc1-c1ccc(F)cc1 [Compound 11]	–	> 10000 nM
CNCCN(C)Cc1cnn(CC2CCOCC2)c1-c1ccc(F)cc1 [Compound 12]	101 to 1000 nM	> 10000 nM
CNCCN(C)Cc1c[nH]nc1-c1cccc(N)c1 [Compound 32]	< 100 nM	1010 to 3000 nM
CNCCN(C)Cc1c[nH]nc1-c1ccc(CC#N)cc1 [Compound 34]	< 100 nM	101 to 1000 nM
CNCCN(C)Cc1c[nH]nc1-c1ccccc1O [Compound 35]	101 to 1000 nM	> 10000 nM
CNCCN(C)Cc1c[nH]nc1-c1ccccc1Oc1ccccc1 [Compound 36]	1010 to 3000 nM	> 10000 nM
CNCCN(C)Cc1c[nH]nc1-c1cccc(OC(F)(F)F)c1 [Compound 39]	< 100 nM	101 to 1000 nM
CNCCN(C)Cc1c[nH]nc1-c1ccccc1NS(C)(=O)=O [Compound 41]	3010 to 10000 nM	> 10000 nM
CNCCN(C)Cc1c[nH]nc1-c1cccc(NC(C)=O)c1 [Compound 42]	< 100 nM	1010 to 3000 nM
CNCCN(C)Cc1c[nH]nc1-c1cccc(C(C)=O)c1 [Compound 44]	< 100 nM	101 to 1000 nM
CNCCN(C)Cc1c[nH]nc1-c1ccc(C(=O)c2ccccc2)cc1 [Compound 45]	< 100 nM	101 to 1000 nM
CNCCN(C)Cc1c[nH]nc1-c1ccccc1-c1ccccc1 [Compound 46]	3010 to 10000 nM	> 10000 nM
CNCCN(C)Cc1c[nH]nc1-c1ccc(-c2ccccc2)cc1 [Compound 47]	< 100 nM	< 100 nM
CNCCN(C)Cc1c[nH]nc1-c1ccccc1F [Compound 48]	< 100 nM	1010 to 3000 nM
CNCCN(C)Cc1c[nH]nc1-c1ccc(F)cc1F [Compound 49]	< 100 nM	101 to 1000 nM
CNCCN(C)Cc1c[nH]nc1-c1cc(F)ccc1F [Compound 50]	< 100 nM	1010 to 3000 nM

SMILES	IC50 (Full-length human PRMT6)	IC50 (Full-length human PRMT8)
CNCCN(C)Cc1c[nH]nc1-c1ccc(F)c(F)c1 [Compound 51]	< 100 nM	101 to 1000 nM
CNCCN(C)Cc1c[nH]nc1-c1ccc(OC)c(F)c1 [Compound 52]	< 100 nM	101 to 1000 nM
CNCCN(C)Cc1c[nH]nc1-c1cc(Cl)ccc1OC [Compound 53]	101 to 1000 nM	> 10000 nM
CNCCN(C)Cc1c[nH]nc1-c1cccc(OC)c1OC [Compound 54]	101 to 1000 nM	3010 to 10000 nM
CNCCN(C)Cc1c[nH]nc1-c1ccc(OC)cc1OC [Compound 55]	< 100 nM	3010 to 10000 nM
CNCCN(C)Cc1c[nH]nc1-c1c(OC)cccc1OC [Compound 56]	1010 to 3000 nM	> 10000 nM
CNCCN(C)Cc1c[nH]nc1-c1cccc2ccccc12 [Compound 57]	< 100 nM	101 to 1000 nM
CNCCN(C)Cc1c[nH]nc1-c1ccc2ccccc2c1 [Compound 58]	< 100 nM	101 to 1000 nM
CNCCN(C)Cc1cn(CCC(O)CO)nc1-c1ccc(F)cc1 (stereo not drawn) [Compound 59]	101 to 1000 nM	3010 to 10000 nM
CCNCCN(C)Cc1c[nH]nc1-c1ccc(F)cc1 [Compound 60]	< 100 nM	1010 to 3000 nM
COCCn1cc(CN(C)CCN(C)C)c(-c2ccc(F)cc2)n1 [Compound 61]	–	> 10000 nM
CCN(CCN)Cc1c[nH]nc1-c1ccc(F)cc1 [Compound 62]	< 100 nM	101 to 1000 nM
CCCN(CCN)Cc1c[nH]nc1-c1ccc(F)cc1 [Compound 63]	1010 to 3000 nM	3010 to 10000 nM
COCCn1ncc(CN(C)CCN(C)C)c1-c1ccc(F)cc1 [Compound 64]	1010 to 3000 nM	> 10000 nM
CN(CCN)Cc1cnn(CCO)c1-c1ccc(F)cc1 [Compound 65]	101 to 1000 nM	3010 to 10000 nM
CN(CCN)Cc1cn(CCO)nc1-c1ccc(F)cc1 [Compound 66]	1010 to 3000 nM	3010 to 10000 nM
CN(CCN)Cc1c[nH]nc1-c1ccc(C#N)cc1 [Compound 68]	< 100 nM	101 to 1000 nM
CN(CCN)Cc1n[nH]cc1-c1ccc(F)cc1 [Compound 69]	< 100 nM	1010 to 3000 nM
CN(CCN)Cc1c[nH]nc1-c1cccc(C#N)c1 [Compound 70]	< 100 nM	1010 to 3000 nM
CN(CCN)Cc1c[nH]nc1-c1cccc(F)c1 [Compound 71]	< 100 nM	101 to 1000 nM
CN(CCN)Cc1c[nH]nc1-c1ccccc1F [Compound 72]	< 100 nM	3010 to 10000 nM
CN(CCN)Cc1c[nH]nc1-c1ccccc1 [Compound 73]	< 100 nM	101 to 1000 nM

SMILES	IC50 (Full-length human PRMT6)	IC50 (Full-length human PRMT8)
CN(CCN)Cc1c[nH]nc1-c1ccc(C(C)(C)C)cc1 [Compound 74]	< 100 nM	101 to 1000 nM
CC(C)N(CCN)Cc1c[nH]nc1-c1ccc(F)cc1 [Compound 75]	1010 to 3000 nM	1010 to 3000 nM
CN(CCN)Cc1cn(CC(O)CO)nc1-c1ccc(F)cc1 (stereo not drawn) [Compound 76]	1010 to 3000 nM	> 10000 nM
CN(CCN)Cc1cn(C2COC2)nc1-c1ccc(F)cc1 [Compound 77]	101 to 1000 nM	1010 to 3000 nM
NCCN(Cc1c[nH]nc1-c1ccc(F)cc1)C1CC1 [Compound 78]	< 100 nM	1010 to 3000 nM
CN(CCN)Cc1cn(CC2COC2)nc1-c1ccc(F)cc1 [Compound 79]	–	> 10000 nM
CN(CCN)Cc1cnn(CC2COC2)c1-c1ccc(F)cc1 [Compound 80]	–	> 10000 nM
CN(CCN)Cc1cnn(C2COC2)c1-c1ccc(F)cc1 [Compound 81]	101 to 1000 nM	3010 to 10000 nM
CN(CCN)Cc1c[nH]nc1-c1ccc(N2CCNCC2)cc1 [Compound 82]	101 to 1000 nM	1010 to 3000 nM
CN(CCN)Cc1nn(C)cc1-c1ccc(C#N)cc1 [Compound 83]	< 100 nM	101 to 1000 nM
CN(CCN)Cc1c(-c2ccc(C#N)cc2)cnn1C [Compound 84]	–	> 10000 nM
CN(CCN)Cc1c[nH]nc1-c1ccc(C(F)(F)F)cc1C(F)(F)F [Compound 85]	101 to 1000 nM	3010 to 10000 nM
CN(CCN)Cc1c[nH]nc1-c1ccc(Cl)cc1Cl [Compound 86]	< 100 nM	101 to 1000 nM
COc1ccc(-c2n[nH]cc2CN(C)CCN)c(OC)c1 [Compound 87]	101 to 1000 nM	3010 to 10000 nM
Cc1ccc(-c2n[nH]cc2CN(C)CCN)c(C)c1 [Compound 88]	< 100 nM	1010 to 3000 nM
CN(CCN)Cc1c[nH]nc1-c1ccc(F)cc1Cl [Compound 89]	< 100 nM	1010 to 3000 nM
Cc1ccc(-c2n[nH]cc2CN(C)CCN)c(Cl)c1 [Compound 90]	< 100 nM	1010 to 3000 nM
Cc1ccc(Cl)c(-c2n[nH]cc2CN(C)CCN)c1 [Compound 91]	101 to 1000 nM	3010 to 10000 nM
CN(CCN)Cc1c[nH]nc1-c1ccc(C(F)(F)F)cc1 [Compound 92]	< 100 nM	101 to 1000 nM
CN(CCN)Cc1c[nH]nc1-c1ccc(OC(F)(F)F)cc1 [Compound 93]	< 100 nM	< 100 nM
CN(CCN)Cc1c[nH]nc1-c1ccc(OC(F)F)cc1 [Compound 94]	< 100 nM	101 to 1000 nM
CC(C)Oc1ccc(-c2n[nH]cc2CN(C)CCN)cc1Cl [Compound 168]	< 100 nM	–
